US12178224B1, “Use of gamma-quaternary ammonium butyrate compound in preparation of an animal feed additive” (ANIPHA TECHNOLOGIES PTY LTD, priority 2019, dated 2024)

Legend:
[1] = system: tilapia; conditions: L-carnitine in basal diet, compared with the blank Control group; cited from earlier work
[2] = system: broilers; experiment: Effect on the production performance of broilers (breeding test); type: in vivo, Chinese three-yellow-feather broilers; conditions: 600 ppm in basal diet, 20 days; for FCR (feed conversion ratio): ADFI/ADG
Method: A single-factor random design was adopted for the test. 360 of one-day-old Chinese three-yellow-feather broilers with similar weights having an average weight of 50 g were randomly divided into 3 treatment groups, each group having 6 repetitions, half male and half female, and each repetition having 20 Chinese three-yellow-feather broilers. The henhouse and appliances were sterilized before testing. During the test, the cage rearing was carried out in the same henhouse under the same feeding and management condition. The basal diet is mainly a corn-soybean meal, and no additional antioxidant components or growth promoters were added during the entire feeding process. Each test group is a control group (Group I) and test groups II to III, respectively. Wherein, the control group was fed with the basal diet only, and the test groups II to III were fed with basal diets that were added with 600 ppm of different γ-quaternary ammonium butyrate compounds.
The test period was 20 days in total. The test broilers were free to drink and eat, and were fed twice a day. With each repetition as a unit, the test broilers were weighed at the age of 21 days (stopping feeding for 12 hours, without stopping water) to count the consumption of the test broilers, calculate the average daily feed intake (ADFI, g/d*number of broilers), average daily gain (ADG, g/d*number of broilers) and feed conversion ratio (FCR) of each group of test broilers. The calculation formulas are as follows: Feed conversion ratio (FCR)=average daily feed intake/average daily gain.

[3] = system: porkers; experiment: Effect on the production performance of porkers (breeding test); type: in vivo; conditions: 1000 ppm in basal diet, 28 days; for FCR (feed conversion ratio): ADFI/ADG
Excerpt: 90 head of “duroc×landrace×Large Yorkshire” three-way cross lean-type pigs with similar weights having an average weight of 80 kg were randomly divided into 3 treatment groups, each group having 3 repetitions, and each repetition having 10 pigs, half male and half female. The pigsty and appliances were sterilized before testing. During the test, the piglets were fed in separate pigpens under the same feeding and management condition in the same pigsty. During the test, the test pigs ate and drank freely, and were fed twice a day. Each test group is a control group (Group I) and test groups II to III, respectively. Wherein, the control group was fed with a basal diet only, and the test groups II to III were fed with diets that were supplemented with 1000 ppm of different γ-quaternary ammonium butyrate compounds on the basis of the basal diet, specifically as shown in Table 1.
During the entire feeding process, no additional antioxidant components or growth promoters were added for each test group. The test period is 28 days, with each repetition as a unit, the pigs were weighed on the 28th day of the test after not stopping water but stopping feeding for 12 hours to calculate the average daily feed intake (ADFI, g/d*head), average daily gain (ADG, g/d*head) and feed conversion ratio (FCR) for each test group. The calculation formulas are as follows: Average daily feed intake=(total amount of feeds-remaining amount of feeds)/(test days×number of pigs per repetition); Average daily gain=(average weight at the end of the test-average weight at the beginning of the test)/test days; Feed conversion ratio=average daily feed intake/average daily gain.

SMILES | weight gain rate reduced [1] [%] | ADFI (average daily feed intake) [2] | ADG (average daily gain) [2] | FCR (feed conversion ratio) [2] | ADFI (average daily feed intake) [3] [g/d * head] | ADG (average daily gain) [3] [g/d * head] | FCR (feed conversion ratio) [3]
C[N+](C)(C)C[C@H](O)CC(=O)[O-] [L-carnitine] | 1.2 | – | – | – | – | – | –
CCOC(=O)C[C@@H](O)C[N+](C)(C)C [ethyl L-carnitine bromide, ethyl (R)-3-hydroxy-4-(trimethylammonium) butyrate bromide] | – | 31.34 g/d * number of broilers | 13.00 g/d * number of broilers | 2.41 | 2624 | 788 | 3.33
C[N+](C)(C)C[C@H](O)CC(=O)OCc1ccccc1 [benzyl L-carnitine chloride] | – | 32.18 g/d * number of broilers | 13.46 g/d * number of broilers | 2.39 | 2560 | 790 | 3.24
